# Data as given in US7084239B1, “Cancer peptides of NY-ESO-1/CAG-3” (The United States of America as represented by the …, priority 1997, dated 2006).
# Columns and labels:
# Format in all cases: cell-based, human
# [1] = test system: CTL clone 5; test: GM-CSF release by CTL clone 5 on peptide-pulsed EBV B cells; settings: for GM-CSF release by CTL clone 5, EXPT. 2 (586EBV): 586EBV cells; for GM-CSF release by CTL clone 5, EXPT. 2 (586EBV) / GM-CSF release by CTL clone 5, EXPT. 1 (1510EBV): peptide 0.1 μg/ml for 90 min, 5 × 10^4 CTL clone 5; for GM-CSF release by CTL clone 5, EXPT. 1 (1510EBV): 1510EBV cells; for CTL clone 5 GM-CSF release: 1510EBV cells incubated with peptide at 0.1 μg/ml for 90 min
# Procedure: (§1) DNA transfection and GM-CSF assay were done as previously described (Wang, R. F., P. F. Robbins, Y. Kawakami, X. Q. Kang, and S. A. Rosenberg, 1995, J. Exp. Med. 181:799–804). Briefly, […] of DNA carrying a different fragment and 50 ng of the HLA-A31 DNA were mixed with 2 μl of lipofectamine in 100 μl of serum-free DMEM for 15–45 min. The DNA/lipofectamine mixture was then added to the COS-7 (5×10^4) cells and incubated overnight. The following day, cells were washed twice with DMEM medium. TIL586, CTL clone 5 or CTL clone 10 were added at a concentration of 5×10^4 cells/well in AIM-V medium containing 120 IU/ml of IL-2. After 18–24 h incubation, 100 μl of supernatant was collected and GM-CSF was measured in a standard ELISA assay (R+D Systems, Minneapolis, Minn.). For peptides, 586EBV, 1510EBV and T2 cells were incubated with peptides at 37° C. for 90 min, and then washed three times with AIM-V medium containing 120 IU/ml of IL-2. T cells were added and incubated for additional 18–24 h, 100 μl of supernatant was collected for GM-CSF assay. In some experiments, IFN-γ release assays were done using a standard ELISA kit (Endogen, Woburn, Mass.).
# These peptides were pulsed onto HLA-A31-positive 1510EBV B cells and tested for their ability to stimulate cytokine release by CTL clone 5. […] CTL clone 10 recognized the same peptide as CTL clone 5 (data not shown). […] The reactivity of CTL clone 5 was undetectable when either the ESO9-54 or the ESO10-127 peptides were used at concentrations below 100 nM to sensitize EBV cells.
# [2] = test system: CTL clone 2; test: T cell recognition (GM-CSF release) of peptide-pulsed EBV B cells by CTL clone 2; settings: peptide pulsed onto 1510EBV or 586EBV B cells
# Source text: (§2) FIGS. 7A–7C. An alternative open reading frame of the NY-ESO-1 gene and antigenic peptides recognized by CTL. FIG. 7A. Identification of antigenic peptides from the ORF2. Thirty peptides were synthesized based on all potential ORFs and screened. Representative data are shown here. Seven peptides derived from ORF2 (see FIG. 3A) were pulsed on HLA-A31 positive 1510EBV B cells and tested for T cell recognition based on GM-CSF release ([…], SEQ ID NO: 123; […], SEQ ID NO: 124; […], SEQ ID NO: 125; […], SEQ ID NO: 46; […], SEQ ID NO: 47; […], SEQ ID NO: 126; and […], SEQ ID NO: 127). 1510 EBV alone was used as a negative control. FIG. 7B. 1510EBV B cells were labeled with chromium for 2 h. The ESORF2-10-18 peptide was then pulsed on the chromium-labeled […] (solid square) and HLA-A31-negative 1102EBV (open circle) at different concentrations. 1510EBV pulsed with ESO10-53, which was recognized by CTL clone 5, was used for the specificity control (solid triangle). After peptide incubation and three washes, cytolysis of target cells by CTL-clone 2 was determined in a 4-h chromium release assay at an E:T ratio of 20:1. FIG. 7C. Several tumor lines and fresh breast tumors were tested for recognition by CTL clone 2 to determine whether the ORF2 is translated in different tumors. 1510EBV B cells pulsed with […] (SEQ ID NO: 25) (ESO10-53), […] (SEQ ID NO: 47) (ORF2-10-18), or alone were included to evaluate the reactivity and specificity of CTL clone 2 and 5. Expression of HLA-A31 on the tumor cells is indicated.
# as §1, with “For peptides, 586EBV, 1510EBV and T2 cells were incubated with peptides at 37° C. for 90 min, and then washed three times with AIM-V medium containing 120 IU/ml of IL-2. T cells were added and incubated for additional 18–24 h, 100 μl of supernatant was collected for GM-CSF assay. In some experiments, IFN-γ release assays were done using a standard ELISA kit (Endogen, Woburn, Mass.).” left out
# CTL clone 5 and TIL1244 were used for the specificity controls. […] To test the hypothesis that CTL may recognize a peptide from a gene product translated from an alternative open reading frame of the same gene, synthetic peptides were made with HLA-A31 Binding motif on the basis of amino acid sequence predicted from the second open reading frames (ORF2) (FIG. 3A). […]
# [3] = test system: CTL clone 2; test: Chromium release cytolysis of peptide-pulsed target cells by CTL clone 2; settings: 4-h chromium release, E:T ratio of 20:1 (FIG. 7B)
# Source text: as §2, with “Expression of HLA-A31 on the tumor cells is indicated.” left out
# Cytolytic assay was done as previously described (Kawakami, Y et al., 1994, Proc. Natl. Acad. Sci. USA 91:6458–62). […] The cells were washed again, counted, and then mixed with TIL586 or CTL clone 5 at the indicated ratio of effector: targets (E:T). Chromium release was measured after 4 h incubation. […] Percentage of specific lysis was determined from the equation (A−B)/(C−B)×100 where A is lysis of 586EBV B cells by TIL586 or clone 5 in the presence of a peptide, B is spontaneous release from 586EBV B cells in presence of the same peptide but in the absence of effector cells, and C is the maximum chromium release. […]
Sequence,"GM-CSF release by CTL clone 5, EXPT. 2 (586EBV) [1]","GM-CSF release by CTL clone 5, EXPT. 1 (1510EBV) [1]",CTL clone 5 GM-CSF release [1],further results
ASGPGGGAPRG (listed as Homo sapiens),<50 (SEQ. ID NO: 32),<50,–,–
GPRGAGAAR (listed as Homo sapiens) [ESO9-45],–,–,<50 (SEQ. ID NO: 10) pg/ml,–
RSGPGGGAPR (listed as Homo sapiens),<50 (SEQ. ID NO: 44),<50,–,–
TIRLTAADHR (listed as Homo sapiens) [ESO10-34],–,–,<50 (SEQ. ID NO: 16) pg/ml,–
AGAARASGPGGGAPR (listed as Homo sapiens),532 (SEQ. ID NO: 26),728,–,–
LAQPPSGQR (listed as Homo sapiens) [ESO9-89],–,–,<50 (SEQ. ID NO: 11) pg/ml,–
GAARASGPGGGAPR (listed as Homo sapiens),678 (SEQ. ID NO: 27),659,–,–
RASGPGGGAPR (listed as Homo sapiens),708 (SEQ. ID NO: 30),851,–,–
RCGARGPESR (listed as Homo sapiens) [ESO10-77],–,–,<50 (SEQ. ID NO: 20) pg/ml,–
RGPRGAGAAR (listed as Homo sapiens) [ESO10-44],–,–,<50 (SEQ. ID NO: 23) pg/ml,–
VSGPGGGAPR (listed as Homo sapiens),666 (SEQ. ID NO: 42),825,–,–
FLAQPPSGQR (listed as Homo sapiens) [ESO10-170],–,–,<50 (SEQ. ID NO: 18) pg/ml,–
TPMEAELARR (listed as Homo sapiens) [ESO10-98],–,–,<50 (SEQ. ID NO: 19) pg/ml,–
AQPPSGQRR (listed as Homo sapiens) [ESO9-90],–,–,<50 (SEQ. ID NO: 6) pg/ml,–
ASGPGGGAPH (listed as Homo sapiens),<50 (SEQ. ID NO: 40),<50,–,–
TSGPGGGAPR (listed as Homo sapiens),346 (SEQ. ID NO: 41),320,–,–
ARASGPGGGAPR (listed as Homo sapiens),738 (SEQ. ID NO: 29),840,–,–
LAQPPSGQRR (listed as Homo sapiens) [ESO10-171],–,–,<50 (SEQ. ID NO: 22) pg/ml,–
GATGGRGPR (listed as Homo sapiens) [ESO9-38],–,–,<50 (SEQ. ID NO: 9) pg/ml,–

Sequence,"GM-CSF release by CTL clone 5, EXPT. 2 (586EBV) [1]","GM-CSF release by CTL clone 5, EXPT. 1 (1510EBV) [1]",CTL clone 5 GM-CSF release [1],further results
PMEAELARR [ESO9-99],–,–,<50 (SEQ. ID NO: 8) pg/ml,–
AAGPGGGAPR (listed as Homo sapiens),676 (SEQ. ID NO: 34),688,–,–
GPGGGAPR (listed as Homo sapiens),<50 (SEQ. ID NO: 31),<50,–,–
IRLTAADHR (listed as Homo sapiens) [ESO9-35],–,–,<50 (SEQ. ID NO: 13) pg/ml,–
LAAQERRVPR (listed as Homo sapiens) [ESORF2-10-18],–,–,–,"Recognition by CTL clone 2, in words [2]: recognized; Lysis of peptide-pulsed HLA-A31-negative 1102EBV by CTL clone 2 [3]: failed to lyse; Lysis of peptide-pulsed 1510EBV by CTL clone 2 ([3]; peptide titration): capable of lysing"
ATPMEAELAR (listed as Homo sapiens) [ESO10-97],–,–,<50 (SEQ. ID NO: 17) pg/ml,–
SGPGGGAPRG (listed as Homo sapiens),<50 (SEQ. ID NO: 33),<50,–,–
TPMEAELAR (listed as Homo sapiens) [ESO9-98],–,–,<50 (SEQ. ID NO: 7) pg/ml,–
AARASGPGGGAPR (listed as Homo sapiens),738 (SEQ. ID NO: 28),844,–,–
AIGPGGGAPR (listed as Homo sapiens),550 (SEQ. ID NO: 35),428,–,–
ASGPGGGAPK (listed as Homo sapiens),<50 (SEQ. ID NO: 39),<50,–,–
AAQERRVPR (listed as Homo sapiens) [ESORF2-9-19],–,–,–,"Recognition by CTL clone 2, in words [2]: recognized"
LSGPGGGAPR (listed as Homo sapiens),<50 (SEQ. ID NO: 43),<50,–,–
AASGLNGCCR (listed as Homo sapiens) [ESO10-68],–,–,<50 (SEQ. ID NO: 21) pg/ml,–
AVGPGGGAPR (listed as Homo sapiens),512 (SEQ. ID NO: 37),556,–,–
ATGPGGGAPR (listed as Homo sapiens),1158 (SEQ. ID NO: 38),1630,–,–
ALGPGGGAPR (listed as Homo sapiens),378 (SEQ. ID NO: 36),200,–,–
LNGCCRCGAR (listed as Homo sapiens) [ESO10-72],–,–,<50 (SEQ. ID NO: 24) pg/ml,–
SGPGGGAPR (listed as Homo sapiens) [ESO9-54],<50 (SEQ. ID NO: 14),<50,304 (SEQ. ID NO: 14) pg/ml,"Recognition by CTL clone 5 (cytokine release), in words ([1]; peptide pulsed onto HLA-A31-positive 1510EBV or 586EBV B cells): weakly recognized"
